The values below come from US8614064B2, “Methods of diagnosing atherosclerosis by measuring ApoCI” (The Johns Hopkins University, priority 2003, dated 2013).

The test system of assay [1] is ceramide. Nature of the assay: Measurement of the ceramide level (diacylglycerol kinase assay) in ASMC. The class given is cell-based, human. Here is the method:
FIGS. 4A-4D depict the effect of ApoCI, ApoCI-enriched HDL, and ApoCI-poor HDL on the level of ceramide in ASMC. Confluent ASMC were incubated with ApoCI (2.5 μg/mL) with time (FIG. 4A, upper left) or with ApoCI-enriched HDL (1 μg apoA-I/mL medium) or ApoCI-poor HDL (5 μg apoA-I/mL medium) (FIG. 4B, upper right) for 30 minutes. FIG. 4C: The cells were incubated with ApoCI alone ([…]) for 5 minutes or preincubated with GW4869 (20 μmol/L) for 30 minutes. After addition of ApoCI (2.5 μg/mL), incubation was continued for 6 hours, 12 hours, and 24 hours. After incubation, cells were harvested and the levels of ceramide determined using the diacylglycerol kinase assay. The level of phosphate was measured and the data (mean±SD) were expressed as percentage of the total ceramide present in untreated cells (vehicle DMSO). *P<0.05. In a separate experiment (FIG. 4D, right), confluent cells were grown on cover slips and pretreated with serum-free medium for 30 minutes. The cells were then incubated with vehicle DMSO alone (control), ApoCI (2.5 μg/ML), or ApoCI (2.5 μg/mL) plus the N-SMase inhibitor GW4869 (20 μmol/L) for 24 hours. The cells were then washed, treated with a primary anticeramide antibody, washed with phosphate-buffered saline, and treated with a fluorescein isothiocyanate-conjugated anti-mouse IgG (FIG. 4C, lower panel).
Cells were pelleted and extracted with chloroform-methanol-acetic acid 100:100:2 (v/v/v). Lipids in organic phase were dried in N2 atmosphere and re-extracted, and the organic phase was dried. Detergent solution (30 μl of 7.5%/n-octyl-β-glucopyranoside with 5 mM cardiolipin in 1 mM diethylenimine-pentaacetic acid) was added, and the samples were sonicated. Total inorganic phosphate level was measured employing the method of Bartlett et al. Bartlett, G R. (1959). J. Biol. Chem. 234, 449-458). Ceramide was measured using the sn-1, 2-diacylglycerolkinase-assay reagent system and labeling for 30 min with 1 mCi of [^32P] ATP in 10 μl of 5 mM ATP (Signorelli, P., and Hannun, Y. A. (2002) Meth. Enzymol. 345, 275-294). Diacylglycerol kinase was from Streptomyces species (Calbiochem, San Diego, Calif.). [^32P] ATP (specific activity 3000 Ci/mmol) was from New England Nuclear Company (Boston, Mass.). Ceramide-1-phosphate and diacylglycerol-1-phosphate were resolved by thin-layer chromatography on silica gel plates (Whatman, Clinton, N.J.), using a solvent composed of chloroform-acetone-methanol-acetic acid-water 10:4:3:2:1(v/v) and detected by autoradiography using an Instant Imager (Packard Canberra Company). Ceramide was expressed as pmol ceramide/nmol phosphate.

Assay [2] has as its system cytochrome c. Briefly: Cytochrome c release, Western immunoblot with densitometric scanning, ASMC. The class given is cell-based, human. The note with it: 24 h; ApoCI and ApoCIII 2.5 μg/mL, ApoCI-enriched HDL 1 μg apoA-I/mL. How it is done:
FIGS. 5A-5C depict the effect of ApoCI, ApoCIII, ApoCI-enriched HDL, and GW4869 on cytochrome c release in ASMC. After treatment of confluent cells for 24 hours with ApoCI (2.5 μg/mL medium), ApoCIII (2.5 μg/mL medium), or ApoCI-enriched HDL (1 μg apoA-I/mL medium), the cells were lysed. The cell lysate was used as the source of cytochrome c, and the pellet was used as a source of caspase-3. The cell lysates were separated by SDS-polyacrylamide gel electrophoresis, blotted onto nitrocellulose, and cytochrome c detected using a polyclonal antibody against cytochrome c (FIG. 5A, top panel). The gels were then subjected to densitometric scanning (FIG. 5B, middle panel). In a separate experiment (FIG. 5C, right), confluent cells were grown on cover slips and pretreated with serum-free medium for 30 minutes. The cells were then incubated with control medium, ApoCI (2.5 μg/mL medium), TNF-α (20 ng/mL), or ApoCI (2.5 μg/mL)+GW4869 (20 μmol/L) for 24 hours. The cells were then washed, treated with a primary anti-cytochrome c antibody, washed with phosphate-buffered saline, and treated with a fluorescein isothiocyanate-conjugated anti-rabbit IgG (FIG. 5C, lower panel). […]

Turning to `O=C(/C=C/c1ccc(/C=C/C(=O)Nc2ccc(C3=NCCN3)cc2)cc1)Nc1ccc(C2=NCCN2)cc1` [GW4869], in assay [1] (GW4869 20 μmol/L, 24 hours), the “effect of GW4869 on ApoCI-induced ceramide production, 24 hours” value was “reversed it to a high level”. The “effect of GW4869 on cellular level of ceramide induced by ApoCI, 5 minutes and 6 hours” value in assay [1] (GW4869 20 μmol/L, after 5 minutes and 6 hours of incubation) is “significantly decreased”. Also, the “effect of GW4869 on ApoCI-induced ceramide production, 12 hours” value in assay [1] (GW4869 20 μmol/L, after 12 hours of incubation) is “completely inhibited”.

Regarding “ApoCIII: purified human ApoCIII purchased from Academy Bio-Medical Company, used as negative control”, in assay [2], the “stimulation of the release of cytochrome c” value is reported as 2.3 fold.

“Apolipoprotein C-I (TPDVSSALDKLKEFGNTLEDKARELISRIKQSELSAKMREWFSETFQKVKEKLKIDS; UniProt P02654 27-83, looked up) [ApoCI, 6.6-kDa single-chain plasma protein of 57 amino acids; purified human ApoCI purchased from Academy Bio-Medical Company]”: the “maximum increase in ceramide level by ApoCI” value in assay [1] (ApoCI 2.5 μg/mL, by 5 minutes) was determined as 1.7 fold. For the same compound, the “stimulation of the release of cytochrome c” value in assay [2] is listed as 4.1 fold.
